Read-outs that look alike come from different tables or passages of the source. Marks after values point to notes of the source that are not given here. Residues, ends and D or L forms follow the SMILES beside them.

The subject of assay [1] is A. solani. The class given is cell-based, Alternaria solani (strain MO-VNIIF-9-2018). As for the experimental part: (§1) The assays were performed in 96-well microtiter plates, using a “checkerboard” design. Fungal conidia were treated with either Folicur® or peptide fragments, each alone, and, in parallel, were subjected to combined treatments wherein the fungicide and one of the WAMP-2-derived peptides were mixed in the same concentration as when used alone. […] However, enhancement potency varied depending on the pathogen, the WAMP fragment, and co-applied concentrations of the WAMP-2 fragments and Folicur®.
(§2) The inhibitory effect of synthesized peptides on conidial germination of fungi was assessed by a microtiterplate assay. Fungal conidia were added to WAMP-2-derived peptides, already dissolved in SDW, to prepare suspensions having final concentrations of 10^5 microconidia/mL (F. oxysporum) or 3 × 10^4 macroconidia/mL (A. solani). Resulting suspensions were incubated at 20–22 °C overnight in wells of 96-well microtiter plates. Control suspensions (with the same final concentrations of conidia) were prepared using SDW. Thereafter, germinated and non-germinated conidia (500 ones of each pathogen per treatment) were counted in treated and control suspensions using an inverted microscope. The average number of conidia germinated in these suspensions was calculated and expressed as the percent of the total number of the counted conidia. In addition, percent germination inhibition in the treated conidia, relative to germination in controls, was determined and indicated as levels of the inhibitory effect in Table 2 and Table 3. Oligopeptides were tested at final concentrations of 50, 100, 200, and 400 µg/mL, which were selected based on previous results of testing of the same WAMP-2-derived peptides for the ability to inhibit spore germination in other Fusarium and Alternaria species.
(§3) In vitro tests involving pathogen sensitization to Folicur® EC 250 were designed under the principle of a microdilution checkerboard assay. Fungal conidia were incubated in 96-well plates in mixtures of the fungicide and each of the peptides at the above-mentioned concentrations in parallel with conidia’ incubation in the solutions of Folicur® or the oligopeptides, alone, used at the same final concentrations as in the mixtures.
(§4) To reveal oligopeptide/fungicide synergy, the Limpel criterion Ee < Er was determined by Formula (1):Ee,% = (X + Y) − XY/100 < Er,% (at p ≤ 0.05),(1) where Ee is the level of an expected additive effect from application of both test compounds; X and Y represent inhibition of the spore germination in % by each antifungal agent used alone; and Er is the percentage of actual inhibition obtained experimentally by co-application of X and Y.
(§5) For each of the two pathogens, microtiter plate tests with synthesized peptides included three independent experimental series. Each experiment included 5 replications of each treatment, 100 conidia per each one (n = 500). Experiments evaluating the sensitizing activity of the tested peptides on leaf disks and detached tomato seedlings were additionally repeated twice. Mean values, standard deviations, standard errors, as well as significant differences from controls and between treatments (t-test for independent variables, p ≤ 0.05), were calculated using STATISTICA v. 6.1 software (StatSoft Inc., Tulsa, OK, USA). Approximation of confidence values (R^2) and regression coefficients were determined using statistical functions of Microsoft Excel 2013 (Microsoft Corp. Redmond, WA, USA).

The subject of assay [2] is F. oxysporum. The class given is cell-based, Fusarium oxysporum f. sp. lycopersici (strain F37). As for the experimental part: In the first series of these experiments, we tested the inhibitory effect of the fragments against F. oxysporum and compared the inhibitory activity of the fragments to each other and to the entire WAMP-2 peptide. Microconidia of the pathogen were treated to each of the WAMP-2 fragments taken at three or four concentrations ranging between 50 and 200 (WAMP-N, WAMP-G2), 100 and 400 (WAMP-G1), or 50 and 400 (WAMP-C) µg/mL. […] After the treatments, the rate of germinated conidia was determined, expressed as the percent relative to the total number of conidia counted (500 ones per treatment). Effective doses (EDs) providing a 50% or 99.9% inhibition were calculated by probit analysis. The performed analysis confirmed our previous data on the antifungal activity of WAMP-2-derived fragments towards the Fusarium wilt agent.
as §2
Inhibitory concentrations of the peptides providing in vitro 50% or 99% in vitro suppression of conidial germination (ED50, and ED99, respectively) were determined by the probit analysis with the involvement of a linear regression. In a regression equation (Y = ax + b) used in probit analyses, Y is the probit value for 50% or 99% inhibition levels, x values are decimal logarithms of the correspondent concentrations, and a and b represent regression coefficients. The calculated ED99 values from the probit analysis were considered as the minimum fungicidal concentration (MFC), i.e., the lowest concentration of a peptide, used alone, resulting in […] inhibition of conidial germination.
as §5, with “Experiments evaluating the sensitizing activity of the tested peptides on leaf disks and detached tomato seedlings were additionally repeated twice.” left out, “6.1 software (StatSoft Inc., Tulsa, OK, USA).” left out

The test system of assay [3] is F. oxysporum. The class given is cell-based, Fusarium oxysporum f. sp. lycopersici (strain F37). Conditions: for Expected additive inhibitory effect (Ee), peptide combined with Folicur: calculated by Limpel's formula. As for the experimental part:
as §1, §2, §3, §4, §5

Assay [4] deals with A. solani. The class given is cell-based, Alternaria solani (strain MO-VNIIF-9-2018). The method, then:
as §2, with “Oligopeptides were tested at final concentrations of 50, 100, 200, and 400 µg/mL, which were selected based on previous results of testing of the same WAMP-2-derived peptides for the ability to inhibit spore germination in other Fusarium and Alternaria species.” left out
For each of the two pathogens, microtiter plate tests with synthesized peptides included three independent experimental series. […] Mean values, standard deviations, standard errors, as well as significant differences from controls and between treatments (t-test for independent variables, p ≤ 0.05), were calculated using STATISTICA v. […]
This is another data set of the same source.

`N=C(N)NCCC[C@H](NC(=O)[C@H](CS)NC(=O)CNC(=O)[C@H](CCCNC(=N)N)NC(=O)[C@H](CS)NC(=O)[C@H](CCC(N)=O)NC(=O)[C@H](CO)NC(=O)[C@H](CCC(N)=O)NC(=O)[C@H](CS)NC(=O)[C@H](CO)NC(=O)CNC(=O)[C@H](CCCCN)NC(=O)CN)C(=O)O` [WAMP-C] (H-GKGSCQSQCRGCR-OH): the “Inhibitory effect on conidial germination (Er), peptide alone” value (from here on “Inhibitory effect … peptide alone”) is listed as 19.0 ^a % in the assay on A. solani [1] (100 µg/mL); 31.0 ^b % with A. solani [1] (200 µg/mL); 48.2 ^c % in the assay on A. solani [1] (400 µg/mL); 4.3 ^a % in the assay on F. oxysporum [3] (50 µg/mL); 6.2 ^b % in the assay with F. oxysporum [3] (100 µg/mL); 8.6 ^c % in the assay with F. oxysporum [3] (200 µg/mL). In addition, in the assay on F. oxysporum [3] (400 µg/mL), the “Inhibitory effect … peptide alone” value is 11.6 ^c %. In addition, the “ED99 (MFC)” value with F. oxysporum [2] is reported as 106.9 ^d µg/mL; in the assay on A. solani [4], 53.4 ^g µg/mL.

Take `CC(C)C[C@H](N)C(=O)N[C@@H](CS)C(=O)N[C@@H](CS)C(=O)NCC(=O)N[C@@H](CCCCN)C(=O)N[C@@H](Cc1ccc(O)cc1)C(=O)NCC(=O)N[C@@H](Cc1ccccc1)C(=O)N[C@@H](CS)C(=O)NCC(=O)N[C@@H](CO)C(=O)NCC(=O)O` [WAMP-G1] (H-LCCGKYGFCGSG-OH): the “Inhibitory effect … peptide alone” value with A. solani [1] (100 µg/mL) is on record as 2.0 ^a %; with A. solani [1] (200 µg/mL), 9.8 ^b %; in the assay with A. solani [1] (400 µg/mL) it was 21.9 ^c %; in the assay with F. oxysporum [3] (100 µg/mL) it was 1.1 ^a %; in the assay with F. oxysporum [3] (200 µg/mL) it was 8.0 ^b %; with F. oxysporum [3] (400 µg/mL) it was 17.5 ^c %. The “ED99 (MFC)” value is reported as >10,000 µg/mL in the assay on F. oxysporum [2] and 3980.0 ^f µg/mL in the assay on A. solani [4].

Take `C[C@H](N)C(=O)N[C@@H](CCC(N)=O)C(=O)N[C@@H](CCCNC(=N)N)C(=O)N[C@@H](CS)C(=O)NCC(=O)N[C@@H](CC(=O)O)C(=O)N[C@@H](CCC(N)=O)C(=O)N[C@@H](C)C(=O)N[C@@H](CCCNC(=N)N)C(=O)NCC(=O)N[C@@H](C)C(=O)N[C@@H](CCCCN)C(=O)N[C@@H](CS)C(=O)O` [WAMP-N] (H-AQRCGDQARGAKC-OH): the “ED99 (MFC)” value with F. oxysporum [2] worked out at 22.7 µg/mL. Also, the “Inhibitory effect … peptide alone” value was 12.3 ^a % in the assay with F. oxysporum [3] (50 µg/mL), 23.1 ^b % with F. oxysporum [3] (100 µg/mL) and 42.7 ^c % in the assay with F. oxysporum [3] (200 µg/mL).

“CCGKYGFCGSGDAYC [WAMP-G2, chemically synthesized fragment (residues 18–32) from the central region of WAMP-2]”: the ED50 in the assay with F. oxysporum [2] (50% inhibition of microconidia germination, probit analysis, SDW, overnight 20–22 °C) is reported as 0.35 ^a µg/mL. In the assay with F. oxysporum [2] (lowest concentration giving 99.9% inhibition of conidial germination, probit analysis), the “ED99 (MFC)” value is listed as 35.1 ^b µg/mL. Further, the “Expected additive inhibitory effect (Ee), peptide combined with Folicur” value is 14.5% in the assay with F. oxysporum [3] (peptide 50 µg/mL + Folicur 0.005 µg/mL); 24.8% with F. oxysporum [3] (peptide 50 µg/mL + Folicur 0.01 µg/mL); 33.0% with F. oxysporum [3] (peptide 50 µg/mL + Folicur 0.05 µg/mL); 28.8% with F. oxysporum [3] (peptide 100 µg/mL + Folicur 0.005 µg/mL); 37.7% with F. oxysporum [3] (peptide 100 µg/mL + Folicur 0.01 µg/mL); 44.1% with F. oxysporum [3] (peptide 100 µg/mL + Folicur 0.05 µg/mL). Moreover, the “Expected additive inhibitory effect (Ee), peptide combined with Folicur” value in the assay on F. oxysporum [3] (peptide 200 µg/mL + Folicur 0.005 µg/mL) is on record as 41.8%; with F. oxysporum [3] (peptide 200 µg/mL + Folicur 0.01 µg/mL), 47.1%; with F. oxysporum [3] (peptide 200 µg/mL + Folicur 0.05 µg/mL), 52.7%. The “Observed inhibitory effect (Er), peptide combined with Folicur” value in the assay on F. oxysporum [3] (peptide 50 µg/mL + Folicur 0.005 µg/mL, mean of 3 experiments) was 27.8 ^b %; with F. oxysporum [3] (peptide 50 µg/mL + Folicur 0.01 µg/mL, mean of 3 experiments) it was 36.4 ^b %; in the assay with F. oxysporum [3] (peptide 50 µg/mL + Folicur 0.05 µg/mL, mean of 3 experiments), 47.4 ^b %; in the assay with F. oxysporum [3] (peptide 100 µg/mL + Folicur 0.005 µg/mL, mean of 3 experiments), 49.3 ^c %; with F. oxysporum [3] (peptide 100 µg/mL + Folicur 0.01 µg/mL, mean of 3 experiments), 53.1 ^c %; with F. oxysporum [3] (peptide 100 µg/mL + Folicur 0.05 µg/mL, mean of 3 experiments) it was 56.8 ^c %. Moreover, the “Observed inhibitory effect (Er), peptide combined with Folicur” value was 62.6 ^d % with F. oxysporum [3] (peptide 200 µg/mL + Folicur 0.005 µg/mL, mean of 3 experiments); 74.8 ^d % in the assay on F. oxysporum [3] (peptide 200 µg/mL + Folicur 0.01 µg/mL, mean of 3 experiments); 87.1 ^d % with F. oxysporum [3] (peptide 200 µg/mL + Folicur 0.05 µg/mL, mean of 3 experiments). Besides, the “Inhibitory effect … peptide alone” value in the assay on F. oxysporum [3] (peptide 50 µg/mL, Folicur 0.0 µg/mL, SDW, overnight 20–22 °C, mean of 3 experiments) is listed as 7.0 ^a %; in the assay on F. oxysporum [3] (peptide 100 µg/mL, Folicur 0.0 µg/mL, SDW, overnight 20–22 °C, mean of 3 experiments), 22.4 ^b %; in the assay on F. oxysporum [3] (peptide 200 µg/mL, Folicur 0.0 µg/mL, SDW, overnight 20–22 °C, mean of 3 experiments) it was 34.1 ^c %.
